{
  "source": "paper PMC12770539",
  "about": "(Scientific Reports, 2025)",
  "key": {"[1]": {"conditions": "cited from earlier work"}, "[2]": {"assay": "TGA analysis", "format": "physicochemical"}, "[3]": {"conditions": "oral administration, 30 mg/kg dose; cited from earlier work"}, "[4]": {"conditions": "cited from earlier work", "remark": "listed apart in the source"}},
  "data": [
    {"smiles": "C[C@@H]1O[C@@H]1P(=O)(O)O", "note": "[Fosfomycin calcium]", "values": [
      {"measurement": "absorption", "setting": "[1]; oral", "result": "10–30%"}
    ]},
    {"smiles": "C[C@@H]1O[C@@H]1P(=O)(O)O.NC(CO)(CO)CO", "note": "[Fosfomycin tromethamine]", "values": [
      {"measurement": "elimination half-life", "setting": "[1]", "result": 2, "unit": "h"},
      {"measurement": "serum concentration (Cmax)", "setting": "[1]; single 3-gm dose", "result": "26.1 (± 9.1) µg/mL"}
    ]},
    {"smiles": "C[C@@H]1O[C@@H]1P(=O)(O)O", "note": "[Fosfomycin]", "values": [
      {"measurement": "temperature at which degradation initiates (TGA)", "setting": "[2]", "result": 150, "unit": "°C"},
      {"measurement": "temperature range of marked weight loss (TGA)", "setting": "[2]", "result": "200–400 °C"},
      {"measurement": "calculated Tmax", "setting": "[3]", "result": "3.00 ± 0.00", "unit": "h"},
      {"measurement": "mean peak concentration (Cmax)", "setting": "[3]", "result": "3600 ± 960", "unit": "ng/mL"}
    ]},
    {"smiles": "Cc1ncc([N+](=O)[O-])n1CCO", "note": "[Metronidazole]", "values": [
      {"measurement": "local irritation, share of users", "setting": "[4]; vaginal administration", "result": "10–15%"},
      {"measurement": "cure rate for bacterial vaginosis", "setting": "[4]; vaginal suppositories, within 7 days", "result": "~80", "unit": "%"}
    ]}
  ]
}
